Results reported in US7510729B2, “Combination of polyvinyl acetate with water-insoluble, acid-insoluble, or alkali-insoluble polymers used for the production of film coatings with highly controlled release and high stability” (BASF Aktiengesellschaft, priority 2002, dated 2009).

Assay: pH-dependent solubility of the active ingredient
Details: acidic range

In the case of `CC(=O)Oc1ccccc1C(=O)O` [Acetylsalicylic acid, acetylsalicylic acid], the Solubility is reported as 0.45%.
